From patent US10112940B2, “Histone demethylase inhibitors” (Celgene Quanticel Research, Inc., priority 2014, dated 2018)

Legend:
[1] = system: KYSE-150 esophageal carcinoma cell line; assay: In vitro cell-based assay: BrdU incorporation cell proliferation ELISA; set-up: species or system human; conditions: Homo sapiens, KYSE-150 cells, 168 hours compound incubation, read-out: Cellular IC50
How it was run: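 KYSE-150 cells (SMAD4 mut, TP53 mut) seeded at 2,000 cells/well, treated next day with 11-point dilutions (100 μM to 2 nM final) for 168 h. Proliferation read by 2 h BrdU labelling and colorimetric anti-BrdU ELISA at 450 nm; IC50 from curve fit.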

JMJD2C = JMJD2C (Homo sapiens (Human), UniProt Q9H3R0); assay: JMJD2C in vitro enzyme inhibition assay (TR-FRET); assay type: biochemical; conditions: 0.3 nM JMJD2C, 300 nM H3K9me3-biotin peptide, 2 μM alpha-ketoglutaric acid, 30 minutes
Sequence of JMJD2C (Q9H3R0 2-372): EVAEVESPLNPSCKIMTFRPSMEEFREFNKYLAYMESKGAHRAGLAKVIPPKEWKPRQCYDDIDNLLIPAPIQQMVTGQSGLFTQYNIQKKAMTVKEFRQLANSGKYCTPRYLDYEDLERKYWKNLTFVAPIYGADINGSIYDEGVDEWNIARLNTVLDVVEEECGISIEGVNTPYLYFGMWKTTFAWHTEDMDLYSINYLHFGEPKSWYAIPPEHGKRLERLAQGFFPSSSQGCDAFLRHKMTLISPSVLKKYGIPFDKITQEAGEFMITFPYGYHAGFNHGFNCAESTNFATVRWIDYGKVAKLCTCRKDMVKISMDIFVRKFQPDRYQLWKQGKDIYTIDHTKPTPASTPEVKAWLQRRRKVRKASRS
How it was run: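 Baculovirus-expressed JMJD2C (aa 2-372), 0.3 nM, with 300 nM biotin-H3K9me3 peptide and 2 μM alpha-ketoglutarate in HEPES pH 7.3 with ascorbate and Fe(II), 30 min at room temperature, 11-point inhibitor series. H3K9me2 product detected by TR-FRET (Eu-antibody/streptavidin-APC, 665/615 ratio); IC50 fitted.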

SMILES | IC50 [1] | IC50 (JMJD2C)
CNCC(C)c1ccc(N(C)c2ccc(Oc3nc(O)c4ccncc4n3)cc2)cc1 (stereo not shown) [Example 70, 2-[4-[N-methyl-4-[1-(methylamino)propan-2-yl]anilino]phenoxy]pyrido[3,4-d]pyrimidin-4-ol] | > 10000 nM | ≤ 100 nM
Cc1cc(N2CCN(C)CC2)cc(N(C)c2ccc(Oc3nc(O)c4ccncc4n3)cc2)c1 [Example 90, 2-[4-[N,3-dimethyl-5-(4-methylpiperazin-1-yl)anilino]phenoxy]pyrido[3,4-d]pyrimidin-4-ol] | > 10000 nM | ≤ 100 nM
CN(c1ccccc1)c1cccc(Oc2nc(O)c3ccncc3n2)c1 [Example 7, 2-[3-(Methyl-phenyl-amino)-phenoxy]-pyrido[3,4-d]pyrimidin-4-ol] | 1000 to 10000 nM | 1000 to 10000 nM
Oc1nc(Oc2ccc3c(c2)CCN3c2ccccc2)nc2cnccc12 [Example 32, 2-(1-phenyl-2,3-dihydro-1H-indol-5-yloxy)-pyrido[3,4-d]pyrimidin-4-ol] | 1000 to 10000 nM | 100 to 1000 nM
CN(c1ccc(Oc2nc(O)c3ccncc3n2)cc1)c1cccc(N2CCCC2)c1 [Example 48, 2-[4-(N-methyl-3-pyrrolidin-1-ylanilino)phenoxy]pyrido[3,4-d]pyrimidin-4-ol] | > 10000 nM | 100 to 1000 nM

More lines, now with the values ahead:

IC50 [1] | IC50 (JMJD2C) | SMILES
1000 to 10000 nM | 100 to 1000 nM | CN(CC1CCc2ccccc21)c1ccc(Oc2nc(O)c3ccncc3n2)cc1 (stereo not shown) [Example 62, 2-[4-[2,3-dihydro-1H-inden-1-ylmethyl(methyl)amino]phenoxy]pyrido[3,4-d]pyrimidin-4-ol]
≤ 100 nM | 1000 to 10000 nM | CC(c1ccc(N(C)c2ccc(Oc3nc(O)c4ccncc4n3)cc2)cc1)C1CC1 (stereo not shown) [Example 39, 2-(4-{[4-(1-cyclopropyl-ethyl)-phenyl]-methyl-amino}-phenoxy)-pyrido[3,4-d]pyrimidin-4-ol]
≤ 100 nM | 100 to 1000 nM | CC(c1ccc(N(C)c2ccc(Oc3nc(O)c4ccncc4n3)cc2)cc1)C(F)(F)F (stereo not shown) [Example 108, 2-[4-[N-methyl-4-(1,1,1-trifluoropropan-2-yl)anilino]phenoxy]pyrido[3,4-d]pyrimidin-4-ol]
